# Measurements reported in PMC11374673, “Discovery of isoquinoline sulfonamides as allosteric gyrase inhibitors with activity against fluoroquinolone-resistant bacteria” (Nature Chemistry, 2024).
# Several values for one entry are separate records, joined by “and”; a condition that tells them apart may be missing. Equal entries are not always repeated. Entries after “also recorded” stand apart in the source; their conditions may differ.
# Test system: E. coli W3110
# Experiment: Checkerboard assay with PMBN;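 as to checkerboard plate reading, Average values: OD600 read after 20 h incubation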;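 as to checkerboard plate reading, replicate wells: OD600 read after 20 h incubation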
smiles,measurement,setting,value
O=S(=O)(NC[C@@H]1CC[C@H](c2ccc(-c3cccnc3)cc2)N1)c1cccc2cnccc12 [LEI-800],"checkerboard plate reading, Average values",LEI-800 0.0976562 µM + PMBN 16 µM (by position),0.5341
same,"checkerboard plate reading, replicate wells",LEI-800 0.0976562 µM + PMBN 32 µM,0.2697 and 0.2568 and 0.2475
same,"checkerboard plate reading, Average values",LEI-800 0.0976562 µM + PMBN 32 µM (by position),0.5346
same,"checkerboard plate reading, Average values",LEI-800 0.195312 µM + PMBN 0 µM (by position),0.5248
same,"checkerboard plate reading, Average values",LEI-800 0.195312 µM + PMBN 0.5 µM (by position),0.5135
same,"checkerboard plate reading, Average values",LEI-800 0.195312 µM + PMBN 1 µM (by position),0.5141
same,"checkerboard plate reading, Average values",LEI-800 0.195312 µM + PMBN 2 µM (by position),0.5165
same,"checkerboard plate reading, Average values",LEI-800 0.195312 µM + PMBN 4 µM (by position),0.4968
same,"checkerboard plate reading, Average values",LEI-800 0.195312 µM + PMBN 8 µM (by position),0.478
same,"checkerboard plate reading, Average values",LEI-800 0.195312 µM + PMBN 16 µM (by position),0.4685
same,"checkerboard plate reading, Average values",LEI-800 0.195312 µM + PMBN 32 µM (by position),0.4392
same,"checkerboard plate reading, Average values",LEI-800 0.390625 µM + PMBN 0 µM (by position),0.4881
same,"checkerboard plate reading, Average values",LEI-800 0.390625 µM + PMBN 0.5 µM (by position),0.4714
same,"checkerboard plate reading, Average values",LEI-800 0.390625 µM + PMBN 1 µM (by position),0.4607
same,"checkerboard plate reading, Average values",LEI-800 0.390625 µM + PMBN 2 µM (by position),0.4461
same,"checkerboard plate reading, Average values",LEI-800 0.390625 µM + PMBN 4 µM (by position),0.399
same,"checkerboard plate reading, Average values",LEI-800 0.390625 µM + PMBN 8 µM (by position),0.3657
same,"checkerboard plate reading, Average values",LEI-800 0.390625 µM + PMBN 16 µM (by position),0.3222
same,"checkerboard plate reading, Average values",LEI-800 0.390625 µM + PMBN 32 µM (by position),0.2778
same,"checkerboard plate reading, Average values",LEI-800 0.78125 µM + PMBN 0 µM (by position),0.4191
same,"checkerboard plate reading, Average values",LEI-800 0.78125 µM + PMBN 0.5 µM (by position),0.3258
same,"checkerboard plate reading, Average values",LEI-800 0.78125 µM + PMBN 1 µM (by position),0.2348
same,"checkerboard plate reading, Average values",LEI-800 0.78125 µM + PMBN 2 µM (by position),0.1359
same,"checkerboard plate reading, Average values",LEI-800 0.78125 µM + PMBN 4 µM (by position),0.1369
same,"checkerboard plate reading, Average values",LEI-800 0.78125 µM + PMBN 8 µM (by position),0.1405
same,"checkerboard plate reading, Average values",LEI-800 0.78125 µM + PMBN 16 µM (by position),0.1463
same,"checkerboard plate reading, Average values",LEI-800 0.78125 µM + PMBN 32 µM (by position),0.1515
same,"checkerboard plate reading, Average values",LEI-800 1.5625 µM + PMBN 0 µM (by position),0.3277
same,"checkerboard plate reading, Average values",LEI-800 1.5625 µM + PMBN 0.5 µM (by position),0.2628
same,"checkerboard plate reading, replicate wells",LEI-800 1.5625 µM + PMBN 1 µM,0.1569
same,"checkerboard plate reading, Average values",LEI-800 1.5625 µM + PMBN 1 µM (by position),0.2051
same,"checkerboard plate reading, replicate wells",LEI-800 1.5625 µM + PMBN 2 µM,0.1524 and 0.1433 and 0.1454
same,"checkerboard plate reading, Average values",LEI-800 1.5625 µM + PMBN 2 µM (by position),0.1478
same,"checkerboard plate reading, replicate wells",LEI-800 1.5625 µM + PMBN 4 µM,0.1452 and 0.1502 and 0.1384
same,"checkerboard plate reading, Average values",LEI-800 1.5625 µM + PMBN 4 µM (by position),0.1494
same,"checkerboard plate reading, Average values",LEI-800 1.5625 µM + PMBN 8 µM (by position),0.1497
same,"checkerboard plate reading, Average values",LEI-800 1.5625 µM + PMBN 16 µM (by position),0.1521
same,"checkerboard plate reading, Average values",LEI-800 1.5625 µM + PMBN 32 µM (by position),0.1528
same,"checkerboard plate reading, replicate wells",LEI-800 3.125 µM + PMBN 0 µM,0.2026 and 0.2019 and 0.1984
same,"checkerboard plate reading, Average values",LEI-800 3.125 µM + PMBN 0 µM (by position),0.201
same,"checkerboard plate reading, replicate wells",LEI-800 3.125 µM + PMBN 0.5 µM,0.1489 and 0.151 and 0.1511
same,"checkerboard plate reading, replicate wells",LEI-800 3.125 µM + PMBN 1 µM,0.1556 and 0.1491 and 0.1492
same,"checkerboard plate reading, Average values",LEI-800 3.125 µM + PMBN 1 µM (by position),0.1661
same,"checkerboard plate reading, replicate wells",LEI-800 3.125 µM + PMBN 2 µM,0.1469 and 0.1488 and 0.1457
same,"checkerboard plate reading, Average values",LEI-800 3.125 µM + PMBN 2 µM (by position),0.1503
same,"checkerboard plate reading, replicate wells",LEI-800 3.125 µM + PMBN 4 µM,0.1605 and 0.1486 and 0.1531
same,"checkerboard plate reading, Average values",LEI-800 3.125 µM + PMBN 4 µM (by position),0.1504
same,"checkerboard plate reading, replicate wells",LEI-800 3.125 µM + PMBN 8 µM,0.1502 and 0.1529 and 0.1524
same,"checkerboard plate reading, Average values",LEI-800 3.125 µM + PMBN 8 µM (by position),0.1498
same,"checkerboard plate reading, replicate wells",LEI-800 3.125 µM + PMBN 16 µM,0.1512 and 0.151 and 0.1573
same,"checkerboard plate reading, Average values",LEI-800 3.125 µM + PMBN 16 µM (by position),0.1513
same,"checkerboard plate reading, replicate wells",LEI-800 3.125 µM + PMBN 32 µM,0.1461 and 0.1492 and 0.1481
same,"checkerboard plate reading, Average values",LEI-800 3.125 µM + PMBN 32 µM (by position),0.1506
same,MIC E. coli + 8 μM PMBN,LPS disruption (pharmacological),0.4 µM
same,synergy with PMBN,checkerboard,potentiates; also recorded: Clear synergy
same,MSC,"checkerboard with PMBN, E. coli W3110",0.39 µM
